These results are taken from patent publication US12053454B2, “Compositions for cryopreservation and methods of use thereof” (EVERGREEN BIOSCIENCES, priority 2017, dated 2024).

In assay [1] the test system is primary mouse cortical neuron cells. Nature of the assay: Viability after freeze/thaw in solutions comprising different necrostatins. The settings on record: necrostatin 20 nM with other components of the soln unchanged; vs vehicle cryopreserved with 10% DMSO. It is filed as cell-based. From the text:
Several analogs of necrostatins were studied and found to work similarly in their cryoprotective effect after freeze/thaw.

The subject of assay [2] is stem cells (motor neuron precursors). The experiment in a line: Motor neuron identity (CHAT1) after freezing of stem cells. Format: cell-based. The following applies: frozen in solutions comprising 0.01 μM cyspA, or 20 nM Nec1, or 5 nM iMAC2; vs frozen in the absence of these compounds. The text has this: Cellular freeze/thaw cycle causes stem cells to lose their identity, as measured by the level of CHAT1 in motor neurons. […] As shown here (FIG. 3), each of cyspA, Nec1, and IMAC2 provided cryoprotection to stem cells upon freezing, maintaining cellular characteristics. Cryoprotectants in solution used to freeze the cells, maintained motor neuron identity, as measure by the level of CHAT1.

In the case of `COc1ccc2c(c1)C1=NN(C(C)=O)C(c3ccc(F)cc3)C1CC2` (centres unmarked) [Nec3], in assay [1], the percent viability entry is reported as “significantly enhanced percent viability”.
For `Cl.Cl.OC(CN1CCNCC1)Cn1c2ccc(Br)cc2c2cc(Br)ccc21` (centres unmarked) [iMAC2, 3,6-Dibromo-a-(1-piperazinylmethyl)-9H-carbazole-9-ethanol dihydrochloride], the CHAT1 levels result in assay [2] is given as “maintained CHAT1 levels”.
